# Entries after “also recorded” stand apart in the source; their conditions may differ.
# Legend:
# Format in all cases: cell-based, S. cerevisiae
# wild-type yeast (BY4741) = assay: ROS measurement by H2DCFDA fluorescence microscopy; details: 2 mM CA, 10 mM FA or 50 mM 4-HBA, 1 hour at 30° C.
# Method: Measurement of ROS was performed as previously described (Kennedy et al., 2016, Sci Rep. 6, 19332). Briefly cells were incubated with 10 μM 2′,7′-dichlorodihydrofluorescein diacetate (H2DCFDA; Invitrogen cat. #D399) for 15 min in the dark. […] An aliquot of 5 μL was spotted onto glass slides and covered with a cover slip prior to imaging. All images were acquired using a Leica DMI 6000 florescent microscope (Leica Microsystems GmbH, Wetzler Germany), equipped with a Sutter DG4 light source (Sutter Instruments, California, USA), Ludl emission filter wheel with Chroma band pass emission filters (Ludl Electronic Products Ltd., NY, USA) and Hamamatsu Orca AG camera (Hamamatsu Photonics, Herrsching am Ammersee, Germany). Images were acquired at 0.2 μm steps across 6 μm using a 63× oil-immersion objective with a 1.4 numerical aperture. Analysis of H2DCFDA fluorescence was performed using Velocity Software V4 (Perkin Elmer). Image J software was used to quantify the H2DCFDA fluorescence signal in cells as described by Schneider et al (Schneider et al., 2012, Nature Methods, 9, 671-675) with a slight modification. Briefly, background fluorescence was subtracted from the images and the total fluorescence of all the cells in the image was measured and divided by the number of cells in the image. The images contained a minimum of 100 cells. The ratio of fluorescence per cell of treated cultures was divided by that of untreated cultures to eliminate background endogenous ROS production.
# gnd1Δ (YKB4797) = assay: dot assay on YPD agar plates; details: 1 mM coniferyl aldehyde, 48 hr at 30° C.
# Method: (§1) Wild type (BY4741) along with zwf1Δ (YKB4794), sol2Δ (YKB4847), sol3Δ (YKB4848), gnd1Δ (YKB4797), gnd2Δ (YKB4850), rpe1Δ (YKB4795), tal1Δ (YKB4851) and tkl1Δ (YKB4796) deletion strains were grown to mid log phase in YPD medium prior to being diluted into fresh medium to an OD600of 0.1. Four 10-fold serial dilutions were spotted onto YPD agar plates containing either 1 mM coniferyl aldehyde (1 mM CA) or no coniferyl aldehyde (0 mM CA). Plates were incubated for 48 hr at 30° C. and images are representative of three biological replicates.
# rpe1Δ (YKB4795) = assay: dot assay on YPD agar plates; details: 1 mM coniferyl aldehyde, 48 hr at 30° C.
# Method: as §1
# tkl1Δ (YKB4796) = assay: dot assay on YPD agar plates; details: 1 mM coniferyl aldehyde, 48 hr at 30° C.
# Method: as §1
# zwf1Δ (YKB4794) = assay: dot assay on YPD agar plates; details: 10 mM FA, 35 mM 4-HBA or 1 mM CA, 48 hr at 30° C., compared to wild type
# Method: as §1
# Wild type (BY4741), bna7Δ (YKB4649) and zwf1Δ (YKB4794) were grown to mid log phase in YPD medium prior to being diluted into fresh medium to an OD600 of 0.1. Four 10-fold serial dilutions were spotted onto YPD agar plates containing either no compound (Untreated), 10 mM ferulic acid (FA), 35 mM 4-hydroxybenzoic acid (4-HBA) or 1 mM coniferyl aldehyde (CA). Plates were incubated for 48 hr at 30° C. and images are representative of three biological replicates.
# zwf1Δ strains = assay: ROS measurement by H2DCFDA fluorescence microscopy; details: 2 mM coniferyl aldehyde; ρ=0.012
# Method: For all microscopy experiments overnight cultures of wild-type yeast grown at 30° C. were re-suspended at an OD600 of 0.1 in YPD medium and allowed to reach mid-log phase prior to imaging. Measurement of ROS was performed as previously described (Kennedy et al., 2016, Sci Rep. 6, 19332). Briefly cells were incubated with 10 μM 2′,7′-dichlorodihydrofluorescein diacetate (H2DCFDA; Invitrogen cat. #D399) for 15 min in the dark. Cells were washed in sterile PBS to remove traces of the dye after which they were re-suspended in YPD medium alone, or YPD supplemented with either 2 mM coniferyl aldehyde, 10 mM ferulic acid or 50 mM 4-hydroxybenzoic acid or hydrogen peroxide for 1 hour at 30° C. […]
# Analysis of H2DCFDA fluorescence was performed using Velocity Software V4 (Perkin Elmer). Image J software was used to quantify the H2DCFDA fluorescence signal in cells as described by Schneider et al (Schneider et al., 2012, Nature Methods, 9, 671-675) with a slight modification. Briefly, background fluorescence was subtracted from the images and the total fluorescence of all the cells in the image was measured and divided by the number of cells in the image. […] The ratio of fluorescence per cell of treated cultures was divided by that of untreated cultures to eliminate background endogenous ROS production. […]
smiles,measurement,setting,value
"COc1cc(C=CC=O)ccc1O [coniferyl aldehyde, 4-hydroxy-3-methoxycinnamaldehyde]",subcellular distribution of induced ROS,wild-type yeast (BY4741),formed punctate structures within the cell
same,growth of gnd1Δ on agar plates,gnd1Δ (YKB4797),no growth
same,growth of rpe1Δ on agar plates,rpe1Δ (YKB4795),no growth
same,growth of tkl1Δ on agar plates,tkl1Δ (YKB4796),no growth
same,growth of zwf1Δ on agar plates,zwf1Δ (YKB4794),no growth; also recorded: limited growth
same,ROS signal in zwf1Δ compared to wild-type,zwf1Δ strains,over two-fold induction

# Reference: US11555210B2, “Microbe having increased tolerance to phenolic fermentation inhibitors” (University of Ottawa, priority 2018, dated 2023)
